The subject of one assay is circulating lymphocytes. Description: Measurement of Circulating Lymphocytes. The following applies: Rattus norvegicus, Lymphocyte; male Lewis rats, 14 hours after oral 30 mg/kg, compared to vehicle-only group; mean±SEM; read-out: Residual Lymphocyte Counts 14 hours after 30 mg/kg p.o. dosing. The format is in vivo, Rats (Lewis strain, male). The procedure: The compounds of formula (I) typically induce the depletion of blood lymphocyte as may be determined in the assay described below. Moreover, compounds of formula (I) are typically efficacious in the said assay also when administered via the per oral route of administration.
Measurement of Circulating Lymphocytes:
The test compounds (or salts thereof) are dissolved in a vehicle such as water, saline, PEG (polyethylene glycol) 200, or PBS (phosphate buffered saline). Rats (Lewis strain, male, 6-12 weeks old) are administered up to 100 mg/kg of the test compounds in 2 ml/kg vehicle via per oral or subcutaneous application. The vehicle or a reference salt and FTY720 (0.3 mg/kg) are included as negative and positive controls, respectively.
Blood is collected from the sublingual vein before and 2, 8 and 24 hours or 14, 18 and 24 hours after the test compound administration under short isoflurane anesthesia. Whole blood samples are subjected to hematology analysis. Peripheral lymphocyte counts are determined using an automated analyzer. The Haemathology System uses a combination of light scatter, cytochemical staining and nuclear density on two independent channels to measure the total and differential white cell counts. Two to four rats are used to assess the lymphocyte depletion activity of each compound screened. The data are presented as mean±SEM.

The target in another assay is T1, human S1P1 receptors (Homo sapiens, UniProt P21453).
T1 construct: myc (N); expressed in transfected cells; host or cells: HeLa (human cervix carcinoma, ATCC CCL2), HeLa-S1P1/Gα16 cell clone 1
T1 sequence (P21453 whole entry): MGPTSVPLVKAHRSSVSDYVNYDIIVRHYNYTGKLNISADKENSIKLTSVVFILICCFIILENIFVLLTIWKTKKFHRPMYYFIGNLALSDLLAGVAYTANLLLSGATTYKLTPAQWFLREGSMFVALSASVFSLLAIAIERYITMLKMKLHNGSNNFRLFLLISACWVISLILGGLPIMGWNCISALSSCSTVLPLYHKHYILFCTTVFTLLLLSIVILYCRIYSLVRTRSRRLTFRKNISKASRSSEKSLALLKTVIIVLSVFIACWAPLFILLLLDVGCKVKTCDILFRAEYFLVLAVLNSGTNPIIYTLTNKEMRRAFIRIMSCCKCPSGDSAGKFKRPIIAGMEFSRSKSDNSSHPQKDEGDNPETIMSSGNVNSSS
In words: Human S1P1 Receptor Calcium FLIPR Antagonist Assay (HeLa Gα16 S1P1). It counts as cell-based. To be noted: relative antagonism of Ca2+ signal evoked by probing agonist GNF-AC-1 at EC80; HeLa-S1P1/Gα16 cells. In short, it runs like this: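 HeLa Gα16 cells expressing S1P1 loaded for calcium fluorescence on FLIPR; compounds added in HBSS with 0.1% BSA, then agonist at EC80 20-30 min later. IC50 from (Fmax-Fmin)/Fmin versus log compound concentration.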

One may read the IC50 as the concentration that inhibits the measured activity by half.

As for `Cc1cc(C(Nc2cccc(-c3cc(C)c(C(=O)N[C@@H](C)C(=O)O)c(C)c3)c2)C(F)F)ccc1Cl` (stereo partly drawn) [Example 75, (S)-2-({3′-[1-(4-Chloro-3-methyl-phenyl)-2,2-difluoro-ethylamino]-3,5-dimethyl-biphenyl-4-carbonyl}-amino)-propionic acid], the response vs control in vivo at 30 mg/kg in the assay on circulating lymphocytes came to 19.4%. In addition, the half-maximal inhibitory concentration (IC50) on human S1P1 receptors was determined as 6 nM.

For `Cc1cc([C@@H](C)Nc2cccc(-c3cc(C)c(C(=O)N(C)C4(C(=O)O)CC4)c(C)c3)c2)ccc1Cl` [Example 81, 1-({3′-[(R)-1-(4-Chloro-3-methyl-phenyl)-ethylamino]-3,5-dimethyl-biphenyl-4-carbonyl}-methyl-amino)-cyclopropanecarboxylic acid], the response vs control in vivo at 30 mg/kg in the assay on circulating lymphocytes is 15.4%. In addition, the IC50 on human S1P1 receptors worked out at 1 nM.

`Cc1cc(C(C)(C)Nc2cccc(-c3cc(C)c(C(=O)N[C@@H](C)C(=O)O)c(C)c3)c2)ccc1Cl` [Example 82, (S)-2-({3′-[1-(4-Chloro-3-methyl-phenyl)-1-methyl-ethylamino]-3,5-dimethyl-biphenyl-4-carbonyl}-amino)-propionic acid]: the response vs control in vivo at 30 mg/kg in the assay on circulating lymphocytes was 10.8%. In addition, the IC50 on human S1P1 receptors is 3 nM.

Take `Cc1cc(C(C)(C)Nc2cccc(-c3cc(C)c(C(=O)N(C)[C@@H](C)C(=O)O)c(C)c3)c2)ccc1Cl` [Example 83, (S)-2-({3′-[1-(4-Chloro-3-methyl-phenyl)-1-methyl-ethylamino]-3,5-dimethyl-biphenyl-4-carbonyl}-methyl-amino)-propionic acid]: the response vs control in vivo at 30 mg/kg with circulating lymphocytes amounted to 15.2%. At human S1P1 receptors, the half-inhibitory concentration (IC50) stood at 2 nM.

Take `Cc1cc(C(C)(C)Nc2cccc(-c3cc(C)c(C(=O)NC4(C(=O)O)CC4)c(C)c3)c2)ccc1Cl` [Example 84, 1-({3′-[1-(4-Chloro-3-methyl-phenyl)-1-methyl-ethylamino]-3,5-dimethyl-biphenyl-4-carbonyl}-amino)-cyclopropanecarboxylic acid]: the response vs control in vivo at 30 mg/kg in the assay on circulating lymphocytes was found to be 18.6%. Also, at human S1P1 receptors, the concentration for half-maximal inhibition (IC50) stood at 2 nM.

Take `Cc1cc(C(C)(C)Nc2cccc(-c3cc(C)c(C(=O)N(C)C4(C(=O)O)CC4)c(C)c3)c2)ccc1Cl` [Example 85, 1-({3′-[1-(4-Chloro-3-methyl-phenyl)-1-methyl-ethylamino]-3,5-dimethyl-biphenyl-4-carbonyl}-methyl-amino)-cyclopropanecarboxylic acid]: in the assay on circulating lymphocytes, the response vs control in vivo at 30 mg/kg is 14.7%. Further, the concentration for half-maximal inhibition (IC50) on human S1P1 receptors turned out to be 11 nM.

Take `Cc1cc([C@@H](C)Nc2cccc(-c3cc(C)c(C(=O)NC4(C(=O)O)CC4)c(C)c3)c2)cc(C)c1Cl` [Example 99, 1-({3′-[(R)-1-(4-Chloro-3,5-dimethyl-phenyl)-ethylamino]-3,5-dimethyl-biphenyl-4-carbonyl}-amino)-cyclopropanecarboxylic acid]: the response vs control in vivo at 30 mg/kg with circulating lymphocytes was found to be 15.5%. Further, at human S1P1 receptors, the IC50 worked out at 1 nM.

On to `Cc1cc([C@@H](C)Nc2cccc(-c3cc(C)c(C(=O)N[C@@H](C)C(=O)O)c(C)c3)c2)cc(C)c1Cl` [Example 100, (S)-2-({3′-[(R)-1-(4-Chloro-3,5-dimethyl-phenyl)-ethylamino]-3,5-dimethyl-biphenyl-4-carbonyl}-amino)-propionic acid], for which the response vs control in vivo at 30 mg/kg in the assay on circulating lymphocytes came to 20.9%. Further, the half-inhibitory concentration (IC50) at human S1P1 receptors came out at 1 nM.

For `Cc1cc(C(Nc2cccc(-c3cc(C)c(C(=O)N(C)[C@@H](C)C(=O)O)c(C)c3)c2)C(F)F)ccc1Cl` (stereo partly drawn) [Example 103, (S)-2-({3′-[1-(4-Chloro-3-methyl-phenyl)-2,2-difluoro-ethylamino]-3,5-dimethyl-biphenyl-4-carbonyl}-methyl-amino)-propionic acid], in the assay on circulating lymphocytes, the response vs control in vivo at 30 mg/kg was 13.9%. The IC50 on human S1P1 receptors came out at 3 nM.

As for `CC[C@H](c1ccc(Cl)c(C)c1)N(C)c1cccc(-c2cc(C)c(C(=O)N(C)[C@@H](C)C(=O)O)c(C)c2)c1` [Example 105, (S)-2-[(3′-{[(R)-1-(4-Chloro-3-methyl-phenyl)-propyl]-methyl-amino}-3,5-dimethyl-biphenyl-4-carbonyl)-methyl-amino]-propionic acid], the response vs control in vivo at 30 mg/kg in the assay with circulating lymphocytes was determined as 20.9%. The IC50 at human S1P1 receptors was determined as 10 nM.

With `Cc1cc([C@H](Nc2cccc(-c3cc(C)c(C(=O)N[C@@H](C)C(=O)O)c(C)c3)c2)C(F)(F)F)ccc1Cl` [Example 106, (S)-2-({3′-[(S)-1-(4-Chloro-3-methyl-phenyl)-2,2,2-trifluoro-ethylamino]-3,5-dimethyl-biphenyl-4-carbonyl}-amino)-propionic acid], the response vs control in vivo at 30 mg/kg in the assay with circulating lymphocytes was found to be 10.9%. Besides, the 50% inhibitory concentration (IC50) on human S1P1 receptors turned out to be 2 nM.

Turning to `CC[C@H](c1ccc(Cl)c(C)c1)N(C)c1cccc(-c2cc(C)c(C(=O)NC3(C(=O)O)CC3)c(C)c2)c1` [Example 108, 1-[(3′-{[(R)-1-(4-Chloro-3-methyl-phenyl)-propyl]-methyl-amino}-3,5-dimethyl-biphenyl-4-carbonyl)-amino]-cyclopropanecarboxylic acid], the response vs control in vivo at 30 mg/kg with circulating lymphocytes was found to be 19.6%. The concentration for half-maximal inhibition (IC50) on human S1P1 receptors was found to be 8 nM.

For the compound `CC[C@@H](Nc1cccc(-c2cc(C)c(C(=O)NC3(C(=O)O)CC3)c(C)c2)c1)c1ccc(Cl)c(C)c1` [Example 109, 1-({3′-[(R)-1-(4-Chloro-3-methyl-phenyl)-propylamino]-3,5-dimethyl-biphenyl-4-carbonyl}-amino)-cyclopropanecarboxylic], the response vs control in vivo at 30 mg/kg with circulating lymphocytes amounted to 19.1%. The IC50 at human S1P1 receptors was 2 nM.

Turning to `Cc1cc([C@H](Nc2cccc(-c3cc(C)c(C(=O)NC4(C(=O)O)CC4)c(C)c3)c2)C(F)(F)F)ccc1Cl` [Example 112, 1-({3′-[(S)-1-(4-Chloro-3-methyl-phenyl)-2,2,2-trifluoro-ethylamino]-3,5-dimethyl-biphenyl-4-carbonyl}-amino)-cyclopropanecarboxylic acid], in the assay with circulating lymphocytes, the response vs control in vivo at 30 mg/kg came to 18.3%. The IC50 at human S1P1 receptors turned out to be 2 nM.

For `CC[C@@H](Nc1ccc(F)c(-c2cc(C)c(C(=O)NC3(C(=O)O)CC3)c(C)c2)c1)c1ccc(Cl)c(C)c1` [Example 115, 1-({5′-[(R)-1-(4-Chloro-3-methyl-phenyl)-propylamino]-2′-fluoro-3,5-dimethyl-biphenyl-4-carbonyl}-amino)-cyclopropanecarboxylic acid], the response vs control in vivo at 30 mg/kg in the assay on circulating lymphocytes came out at 15.8%. For the same compound, the half-inhibitory concentration (IC50) on human S1P1 receptors was determined as 2 nM.

As to `CC[C@@H](Nc1ccc(F)c(-c2cc(C)c(C(=O)N(C)[C@@H](C)C(=O)O)c(C)c2)c1)c1ccc(Cl)c(C)c1` [Example 117, (S)-2-({5′-[(R)-1-(4-Chloro-3-methyl-phenyl)-propylamino]-2′-fluoro-3,5-dimethyl-biphenyl-4-carbonyl}-methyl-amino)-propionic acid], the response vs control in vivo at 30 mg/kg with circulating lymphocytes was found to be 15%. Moreover, the IC50 at human S1P1 receptors turned out to be 2 nM.
